The target of this assay is benzodiazepine modulatory unit of the GABAA receptor complex. In words: In vitro inhibition of 3H-flunitrazepam (3H-FNM) binding. The note with it: inhibition of specific binding of 3H-FNM (1 nM), rat cerebral cortex membranes, 40 min at 2° C. As to the method: In Vitro Inhibition of ^3H-Flunitrazepam (^3H—FNM) Binding
The GABA recognition site and the benzodiazepine modulatory unit can selectively be labelled with ^3H-flunitrazepam.
Preparations are performed at 0-4° C. unless otherwise indicated. Cerebral cortex from male Wistar rats (150-200 g) is homogenised for 5-10 sec in 20 ml Tris-HCl (30 mM, pH 7.4) using an Ultra-Turrax homogeniser. The suspension is centrifuged at 27,000×g for 15 min and the pellet is washed three times with buffer (centrifuged at 27,000×g for 10 min). The washed pellet is homogenized in 20 ml of buffer and incubated on a water bath (37° C.) for 30 min to remove endogenous GABA and then centrifuged for 10 min at 27,000×g. The pellet is then homogenized in buffer and centrifuged for 10 min at 27,000×g. The final pellet is resuspended in 30 ml buffer and the preparation is frozen and stored at −20° C.
The membrane preparation is thawed and centrifuged at 2° C. for 10 min at 27,000×g. The pellet is washed twice with 20 ml 50 mM Tris-citrate, pH 7.1 using an Ultra-Turrax homogeniser and centrifuged for 10 min at 27,000×g. The final pellet is resuspended in 50 mM Tris-citrate, pH 7.1 (500 ml buffer per g of original tissue), and then used for binding assays. Aliquots of 0.5 ml tissue are added to 25 μl of test solution and 25 μl of ^3H—FNM (1 nM, final concentration), mixed and incubated for 40 min at 2° C. Non-specific binding is determined using Clonazepam (1 μM, final concentration). After incubation the samples are added 5 ml of ice-cold buffer and poured directly onto Whatman GF/C glass fibre filters under suction and immediately washed with 5 ml ice-cold buffer. The amount of radioactivity on the filters is determined by conventional liquid scintillation counting. Specific binding is total binding minus non-specific binding.
25-75% inhibition of specific binding must be obtained, before calculation of an IC50.
The test value will be given as IC50 (the concentration (μM) of the test substance which inhibits the specific binding of ^3H—FNM by 50%).
Co is specific binding in control assays, and […]

Each structure is given as a SMILES string.

Usually IC50 stands for the concentration needed to halve the response being measured. High values mean lower potency, low ones higher potency. With `CCOC(=O)c1cn(-c2cccc(COCc3ccccn3)c2)cn1` [Compound 11a, 1-[3-(Pyridin-2-ylmethoxymethyl)-phenyl]-1H-imidazole-4-carboxylic acid ethyl ester], the concentration for half-maximal inhibition (IC50) came out at 24 nM.
`CCOC(=O)c1cn(-c2cccc(Br)c2)cn1` [Compound 16, 1-(3-Bromo-phenyl)-1H-imidazole-4-carboxylic acid ethyl ester] displayed an IC50 of 24 nM.
As for `COC(=O)c1cn(-c2cccc([N+](=O)[O-])c2)cn1` [Compound 20, 1-(3-Nitro-phenyl)-1H-imidazole-4-carboxylic acid methyl ester], the figure is 180 nM.

The values above are taken from US7939556B2, “Imidazole derivatives and their use for modulating the GABAA receptor complex” (Neurosearch A/S, priority 2005, dated 2011).
